Measured values taken from patent publication US20250262189A1, “TREATMENT OF DISEASES ASSOCIATED WITH REDUCTIVE STRESS” (RDiscovery, LLC, priority 2022, published 2025).
“Also recorded” adds a separate entry of the source.

Tested on: GDF-15 expression in HUVEC cells
Test: GDF-15 mRNA expression by RT-qPCR in HUVEC cells under AZT-induced reductive stress
Type: cell-based, Human
Details: AZT 5 μM with ZLN-005 1 μM, harvested Day 6, two sets of runs (FIG. 1, FIG. 2), AZT vs. AZT/ZLN P=0.016 (FIG. 2)
Method: A study was performed to evaluate the ability of ZLN-005 to mitigate the effects of reductive stress induced by azidothymidine (AZT), which is believed to inhibit mitochondrial respiratory chain complex I and II.
Human human umbilical vein endothelial (HUVEC) cells were cultured in HuMedia-EG2 medium (Kurabo) at 5×10^4 cells per well in a six-well plate. Medium was supplemented with AZT (Sigma) at 5 μM, with or without ZLN-005 at 1 μM. Cells cultured without AZT and without ZLN-005 were used as non-treated control (NTC)). Medium was changed on days 2 and 4. Cells were harvested on Day 6 for analysis of GDF-15 mRNA expression by quantitative reverse transcription PCR (RT-qPCR).

Question: With `CC(C)(C)c1ccc(-c2nc3ccccc3[nH]2)cc1` [ZLN-005, 2-(4-tert-butylphenyl)-1H-benzimidazole] as the molecule, how does the “GDF-15 expression compared to cells treated with AZT but not ZLN-005” value read?
Answer: reduced GDF-15 expression; also recorded: decreases expression of reductive stress biomarker GDF-15
